Data on 27 compounds can be found in patent publication US9428514B2, “Bromodomain inhibitors” (AbbVie Inc., priority 2013, dated 2016).

pEC50: −log10 of the molar value.

For the assay, the system named is breast cancer cell line MX-1. Nature of the assay: MX-1 cell line proliferation assay (3-day, Cell Titer Glo). Format: cell-based. The conditions noted are these: Homo sapiens, MX1, MX-1 cells, 72 hours, read-out: Cellular proliferation: EC50. On the procedure:
The impact of compounds of the Examples on cancer cell proliferation was determined using the breast cancer cell line MX-1 (ATCC) in a 3-day proliferation assay. MX-1 cells were maintained in RPMI supplemented with 10% FBS at 37° C. and an atmosphere of 5% CO2. For compound testing, MX-1 cells were plated in 96-well black bottom plates at a density of 5000 cells/well in 90 μL of culture media and incubated at 37° overnight to allow cell adhesion and spreading. Compound dilution series were prepared in DMSO via a 3-fold serial dilution from 3 mM to […]. The DMSO dilution series were then diluted 1:100 in phosphate buffered saline, and 10 μL of the resulted solution were added to the appropriate wells of the MX-1 cell plate. The final compound concentrations in the wells were 3, 1, 0.3, 0.1, 0.03, 0.01, 0.003, 0.001, 0.0003, 0.0001, and 0.00003 μM.
Luminescence readings from the Cell Titer Glo assay were normalized to the DMSO treated cells and analyzed using the GraphPad Prism software with sigmoidal curve fitting to obtain EC50s. The minimum significant ratio (MSR) was determined to evaluate assay reproducibility (Eastwood et al., (2006) J Biomol Screen, 11: 253-261). The overall MSR was determined to be 2.1 and a moving MSR (last six run MSR overtime) has been <2. The EC50 values are reported in Table 1 for the indicated compounds.
Turning to `CCOc1cc(=O)n(C)cc1-c1cc(NC(=O)Cc2ccc3ccccc3c2)ccc1Oc1ccc(F)cc1F` [Example 39, N-[4-(2,4-difluorophenoxy)-3-(4-ethoxy-1-methyl-6-oxo-1,6-dihydropyridin-3-yl)phenyl]-2-(naphthalen-2-yl)acetamide], the pEC50 is 6.23.
The same measure for `CCOc1cc(=O)n(C)cc1-c1cc(NC(=O)CCc2ccccc2)ccc1Oc1ccc(F)cc1F` [Example 41, N-[4-(2,4-difluorophenoxy)-3-(4-ethoxy-1-methyl-6-oxo-1,6-dihydropyridin-3-yl)phenyl]-3-phenylpropanamide]: 6.40; for `CCOc1cc(=O)n(C)cc1-c1cc(NC(=O)Cc2ccc(-c3ccccc3)cc2)ccc1Oc1ccc(F)cc1F` [Example 42, 2-(biphenyl-4-yl)-N-[4-(2,4-difluorophenoxy)-3-(4-ethoxy-1-methyl-6-oxo-1,6-dihydropyridin-3-yl)phenyl]acetamide]: 6.17.
To `CCOc1cc(=O)n(C)cc1-c1cc(NC(=O)Cc2ccc(OCc3ccccc3)cc2)ccc1Oc1ccc(F)cc1F` [Example 45, 2-[4-(benzyloxy)phenyl]-N-[4-(2,4-difluorophenoxy)-3-(4-ethoxy-1-methyl-6-oxo-1,6-dihydropyridin-3-yl)phenyl]acetamide] belongs 6.01.
To `CCOc1cc(=O)n(C)cc1-c1cc(NC(=O)Cc2ccccc2OC)ccc1Oc1ccc(F)cc1F` [Example 46, N-[4-(2,4-difluorophenoxy)-3-(4-ethoxy-1-methyl-6-oxo-1,6-dihydropyridin-3-yl)phenyl]-2-(2-methoxyphenyl)acetamide] belongs 6.35.
As for `CCOc1cc(=O)n(C)cc1-c1cc(NCc2ccccc2C#N)ccc1Oc1ccc(F)cc1F` [Example 57, 2-({[4-(2,4-difluorophenoxy)-3-(4-ethoxy-1-methyl-6-oxo-1,6-dihydropyridin-3-yl)phenyl]amino}methyl)benzonitrile], the pEC50 was 6.15.
To `CCOc1cc(=O)n(C)cc1-c1cc(NCc2ccc(F)cc2)ccc1Oc1ccc(F)cc1F` [Example 64, 5-{2-(2,4-difluorophenoxy)-5-[(4-fluorobenzyl)amino]phenyl}-4-ethoxy-1-methylpyridin-2(1H)-one] belongs 6.29.
The same measure for `CCOc1cc(=O)n(C)cc1-c1cc(N(CC2CC2)S(=O)(=O)Cc2cc(F)ccc2Cl)ccc1Oc1ccc(F)cc1F` [Example 66, 1-(2-chloro-5-fluorophenyl)-N-(cyclopropylmethyl)-N-[4-(2,4-difluorophenoxy)-3-(4-ethoxy-1-methyl-6-oxo-1,6-dihydropyridin-3-yl)phenyl]methanesulfonamide]: below 6.00; for `CCOc1cc(=O)n(C)cc1-c1cc(N(CC2CC2)C(=O)Cc2cc(F)ccc2Cl)ccc1Oc1ccc(F)cc1F` [Example 67, 2-(2-chloro-5-fluorophenyl)-N-(cyclopropylmethyl)-N-[4-(2,4-difluorophenoxy)-3-(4-ethoxy-1-methyl-6-oxo-1,6-dihydropyridin-3-yl)phenyl]acetamide]: below 6.00.
To `CCOc1cc(=O)n(C)cc1-c1cc(NC(=O)C(C)c2cc(F)ccc2Cl)ccc1Oc1ccc(F)cc1F` (stereo not drawn) [Example 70, 2-(2-chloro-5-fluorophenyl)-N-[4-(2,4-difluorophenoxy)-3-(4-ethoxy-1-methyl-6-oxo-1,6-dihydropyridin-3-yl)phenyl]propanamide] belongs below 6.00.
As to `CCOc1cc(=O)n(C)cc1-c1cc(N(C)C(=O)Cc2cc(F)ccc2Cl)ccc1Oc1ccc(F)cc1F` [Example 71, 2-(2-chloro-5-fluorophenyl)-N-[4-(2,4-difluorophenoxy)-3-(4-ethoxy-1-methyl-6-oxo-1,6-dihydropyridin-3-yl)phenyl]-N-methylacetamide], the pEC50 is below 6.00.
For the compound `CCOc1cc(=O)n(C)cc1-c1cc(N(CC2CC2)S(=O)(=O)CC)ccc1Oc1ccc(F)cc1F` [Example 72, N-(cyclopropylmethyl)-N-[4-(2,4-difluorophenoxy)-3-(4-ethoxy-1-methyl-6-oxo-1,6-dihydropyridin-3-yl)phenyl]ethanesulfonamide], the pEC50 is 6.63.
The same measure for `CCOc1cc(=O)n(C)cc1-c1cc(N(Cc2ccccc2)S(=O)(=O)CC)ccc1Oc1ccc(F)cc1F` [Example 73, N-benzyl-N-[4-(2,4-difluorophenoxy)-3-(4-ethoxy-1-methyl-6-oxo-1,6-dihydropyridin-3-yl)phenyl]ethanesulfonamide]: below 6.00; for `CCOc1cc(=O)n(C)cc1-c1cc(N(Cc2ccccc2Cl)S(=O)(=O)CC)ccc1Oc1ccc(F)cc1F` [Example 74, N-(2-chlorobenzyl)-N-[4-(2,4-difluorophenoxy)-3-(4-ethoxy-1-methyl-6-oxo-1,6-dihydropyridin-3-yl)phenyl]ethanesulfonamide]: 6.33; for `CCOc1cc(=O)n(C)cc1-c1cc(N(CCc2ccccc2)S(=O)(=O)CC)ccc1Oc1ccc(F)cc1F` [Example 75, N-[4-(2,4-difluorophenoxy)-3-(4-ethoxy-1-methyl-6-oxo-1,6-dihydropyridin-3-yl)phenyl]-N-(2-phenylethyl)ethanesulfonamide]: 6.21.
The same measure for `CCOc1cc(=O)n(C)cc1-c1cc(N(CC2CC2)S(=O)(=O)Cc2ccccc2)ccc1Oc1ccc(F)cc1F` [Example 76, N-(cyclopropylmethyl)-N-[4-(2,4-difluorophenoxy)-3-(4-ethoxy-1-methyl-6-oxo-1,6-dihydropyridin-3-yl)phenyl]-1-phenylmethanesulfonamide]: below 6.00.
To `CCOc1cc(=O)n(C)cc1-c1cc(N(Cc2ccccc2)S(=O)(=O)Cc2ccccc2)ccc1Oc1ccc(F)cc1F` [Example 77, N-benzyl-N-[4-(2,4-difluorophenoxy)-3-(4-ethoxy-1-methyl-6-oxo-1,6-dihydropyridin-3-yl)phenyl]-1-phenylmethanesulfonamide] belongs below 6.00; to `CCOc1cc(=O)n(C)cc1-c1cc(N(Cc2ccccc2Cl)S(=O)(=O)Cc2ccccc2)ccc1Oc1ccc(F)cc1F` [Example 78, N-(2-chlorobenzyl)-N-[4-(2,4-difluorophenoxy)-3-(4-ethoxy-1-methyl-6-oxo-1,6-dihydropyridin-3-yl)phenyl]-1-phenylmethanesulfonamide], below 6.00; to `CCOc1cc(=O)n(C)cc1-c1cc(N(CCc2ccccc2)S(=O)(=O)Cc2ccccc2)ccc1Oc1ccc(F)cc1F` [Example 79, N-[4-(2,4-difluorophenoxy)-3-(4-ethoxy-1-methyl-6-oxo-1,6-dihydropyridin-3-yl)phenyl]-1-phenyl-N-(2-phenylethyl)methanesulfonamide], below 6.00.
`CCOc1cc(=O)n(C)cc1-c1cc(N(CCc2ccccc2Cl)S(=O)(=O)CC)ccc1Oc1ccc(F)cc1F` [Example 80, N-[2-(2-chlorophenyl)ethyl]-N-[4-(2,4-difluorophenoxy)-3-(4-ethoxy-1-methyl-6-oxo-1,6-dihydropyridin-3-yl)phenyl]ethanesulfonamide]: the pEC50 is below 6.00.
The same measure for `CCOc1cc(=O)n(C)cc1-c1cc(NC(=O)Cn2ccc(-c3ccccc3)n2)ccc1Oc1ccc(F)cc1F` [Example 81, N-[4-(2,4-difluorophenoxy)-3-(4-ethoxy-1-methyl-6-oxo-1,6-dihydropyridin-3-yl)phenyl]-2-(3-phenyl-1H-pyrazol-1-yl)acetamide]: below 6.00.
On to `CCOc1cc(=O)n(C)cc1-c1cc(NC(=O)Cc2cc(Cl)ccc2F)ccc1Oc1ccc(F)cc1F` [Example 82, 2-(5-chloro-2-fluorophenyl)-N-[4-(2,4-difluorophenoxy)-3-(4-ethoxy-1-methyl-6-oxo-1,6-dihydropyridin-3-yl)phenyl]acetamide], for which the pEC50 was below 6.00.
The same measure for `CCOc1cc(=O)n(C)cc1-c1cc(NC(=O)Cc2csc(C)n2)ccc1Oc1ccc(F)cc1F` [Example 83, N-[4-(2,4-difluorophenoxy)-3-(4-ethoxy-1-methyl-6-oxo-1,6-dihydropyridin-3-yl)phenyl]-2-(2-methyl-1,3-thiazol-4-yl)acetamide]: 6.52; for `CCOc1cc(=O)n(C)cc1-c1cc(N(Cc2nccs2)S(=O)(=O)Cc2ccccc2)ccc1Oc1ccc(F)cc1F` [Example 90, N-[4-(2,4-difluorophenoxy)-3-(4-ethoxy-1-methyl-6-oxo-1,6-dihydropyridin-3-yl)phenyl]-1-phenyl-N-(1,3-thiazol-2-ylmethyl)methanesulfonamide]: below 6.00.
For the compound `CCOc1cc(=O)n(C)cc1-c1cc(N(Cc2cccnc2)S(=O)(=O)CC)ccc1Oc1ccc(F)cc1F` [Example 91, N-[4-(2,4-difluorophenoxy)-3-(4-ethoxy-1-methyl-6-oxo-1,6-dihydropyridin-3-yl)phenyl]-N-(pyridin-3-ylmethyl)ethanesulfonamide], the pEC50 is 6.30.
To `CCOc1cc(=O)n(C)cc1-c1cc(N(Cc2cccnc2)S(=O)(=O)Cc2ccccc2)ccc1Oc1ccc(F)cc1F` [Example 92, N-[4-(2,4-difluorophenoxy)-3-(4-ethoxy-1-methyl-6-oxo-1,6-dihydropyridin-3-yl)phenyl]-1-phenyl-N-(pyridin-3-ylmethyl)methanesulfonamide] belongs below 6.00.
To `CCOc1cc(=O)n(C)cc1-c1cc(N(Cc2cncnc2)S(=O)(=O)CC)ccc1Oc1ccc(F)cc1F` [Example 93, N-[4-(2,4-difluorophenoxy)-3-(4-ethoxy-1-methyl-6-oxo-1,6-dihydropyridin-3-yl)phenyl]-N-(pyrimidin-5-ylmethyl)ethanesulfonamide] belongs below 6.00.
